Assay results as given in US4619932A, “Novel carbostyril derivatives, process for producing thereof and pharmaceutical composition containing the same” (Otsuka Pharmaceutical Co., Ltd., priority 1980, dated 1986).
Structures can show the parent of a compound that is named as a salt. Where two headings read alike, the source gives them in different places.

Key:
[1] = system: palpebral ptosis; assay: Palpebral ptosis test in mouse; assay type: in vivo, mouse (male, ddy-strain); conditions: 64 mg/kg oral, 1 hour; score 0 (wide open eyes) to 8 (eyes completely closed); mean of 10 mice
Experimental: (D) Activity of palpebral ptosis test in mouse
Individual male mice of ddy-strain having 18 to 20 g of body weight were used. The mice were abstained from eating for 24 hours. One test group consists of 10 mice. […] One hour after the administration, the state of palpebral ptosis of the mouse were observed and evaluated on the basis of the following score system. The mean value was calculated from the scores of 10 mice.
Score Degree of palpebral ptosis
8 Eyes completely closed.

[2] = system: epinephrine; assay: Activity for antagonizing epinephrine in mouse; assay type: in vivo, mouse (male, ddy strain); conditions: oral, 1 hour before epinephrine 40 mg/kg i.p., survival at 24 hours, read-out: ED50 value, dose allowing half the animals to survive
Experimental: (C) Activity for antagonizing epinephrine in mouse
Individual male mice of ddy strain having 17 to 20 g of body weight were used. The mice were abstained from eating for 24 hours. One test group consist of 10 mice. A compound to be tested was administered orally. One hour after the administration, 40 mg/kg of epinephrine was intraperitonerally administered. […] All of 10 mice administered physiological saline solution as the reference group were dead within a few minutes after the administration of epinephrine. (Cf. Loew, E. R. and Micetich, A., J. Pharmacol. Exp. Ther., 93, 434-443 (1948)).

[3] = system: jumping behavior induced by Methamphetamine and L-DOPA; assay: Activity for inhibiting jumping behavior in mouse induced by Methamphetamine and L-DOPA; assay type: in vivo, mouse (male, ddy-strain); conditions: oral, Methamphetamine 4 mg/kg i.p. and L-DOPA 400 mg/kg i.p., positive = 10 or fewer jumps, read-out: ED50 value, inhibition of jumping behavior
Experimental: (B) Activity for inhibiting jumping behavior in mouse induced by Methamphetamine and L-DOPA
Individual male mice of ddy-strain having a body weight of 17 to 25 g were used. The mice were not fed for 24 hours. One test group consisted of 6 mice. A compound to be tested was administered orally. 40Minutes after the administration 4 mg/kg of Methamphetamine d-N-α-dimethylphenthylamine was intraperitonerally administered, further 15 minutes after the administration of Methamphetamine, 400 mg/kg of L-DOPA was intraperitonerally administered. 60 Minutes after the administration of L-DOPA, (3-(3,4-dihydroxyphenyl)alanine) the mouse was placed in a glass beaker of 2 liters capacity, and the number of jumping of the mouse was recorded. The activity for inhibiting jumping behavior of the test compound was determined as positive in case of number of jumping performed by the administered mouse counted 10 or less. While, the activity for inhibiting jumping behabior of the test compound was determined as negative in case the number of jumping performed by the administered mouse recorded over 10. The effective dosage (ED50 value: mg/kg) of the test compound which gives 3 mice were positive over 6 mice of one test group was calculated. The number of jumping performed by the mouse being administered with physiological saline solution as the reference was 150 to 200 per hour. (Cf. H. Lal, F. C. Colpaert, P. Laduron: European J. Pharmacol., 30, 113-116 (1975)).

[4] = system: Halothane anesthesia; assay: Halothane anesthesia increasing activity; assay type: in vivo, mouse (male, ddy-strain); conditions: 16 mg/kg oral, 1 hour before 4% Halothane for 3 minutes; righting reflex
Experimental: Male mice of ddy-strain a having about 20 g body weight were used. One test group consists of 10 mice. An aqueous Gummi Arabicum suspension of test compound (80 mg of a compound to be tested and 1 g of Gummi Arabicum/100 ml of physiological NaCl solution) was administered orally to each mouse at the dosage of 16 mg of test compound/kg body. One hour after the administration, each mouse was placed in gas respiration chamber (13×13×24 cm) and oxygen gas containing 4% of Halothane (2-brome-2-chloro-1,1,1-trifluoroethane) was flown into the chamber at the velocity of 2/min for 3 minutes. A mouse anaesthetized was taken out from the chamber and the time between the introduction of anesthesia to waking was measured by righting reflex as the index. To mice of control group, 1% Gummi Arabicum aqueous physiological solution was orally administered at the dosage of 0.1 ml/kg body.

[5] = system: male rats; conditions: rat, in vivo, po
Experimental: Each of the following compound of the general formula in the present invention was administered orally to male rats to determine the acute toxicity (LD50 mg/kg).

[6] = biological target: retraction of ileum caused by histamine (Cavia porcellus, UniProt P31389); assay: Antihistaminic activity test in vitro, enucleated ileum of guinea pig; set-up: species or system guinea pig (male)
Description: (E) Antihistaminic activity test
As to the test method for determining antihistaminic activity of a compound in vitro, a method of using an enucleated ileum of a guinea pig is generally accepted. Antihistaminic activity of the present compounds was conduted according to said method as follows:
A male guinea pig having 300 to 500 g body weight was killed by blood letting. An ileum having length of 15 cm being enucleated from the ileocecal region was dipped into Tyrode's solution (which was prepared from 8.0 g of NaCl, 0.2 g of KCl, 0.2 g of CaCl2, 1.0 g of glucose, 1.0 g of NaHCO3, 0.065 g of NaHPO4.2H2 O and 0.2135 g of MgCl2.6H2 O make 1000 ml in total volume by adding water). Then the tissue of ileum was cut to a length of 2.5 to 3.0 cm and suspended in an organ bath filled with 30 ml of Tyrode's solution. The organ bath was kept a temperature of 36° C. and blowing a mixed gas consisting of 5% of CO2 and 95% of O2 into the bath. 10 Minutes after the blowing, 10^-6M of histamine was added to the bath to examine the sensitivity of the tissue and a reaction curve (control) with respect to the dosage of histamine was obtained. After the dosage of histamine-reaction curve (control) become constant 10^-6 g/ml of a compound to be tested was added to the bath and further histamine was added 5 minutes later to obtain dosage-reaction curve. Retraction of the isotonic was recorded on a pen-recorder through an isotonic transducer (TD-112S manufactured by Nihon Koden). Antihistaminc activity of the test compound was determined as pA2 value by "Van Rossam" method (J. M. Van Rossam: Arch. Inst. Pharmacodyn. Ther., 143, 299 (1963)) in terms of that the maximum retraction of ileum caused by histamine shown in the control curve is 100%.

[7] = 10^-6 g/ml test compound, histamine, Tyrode's solution, 36° C., Van Rossam method, read-out: pA2 (converted)

Sequence of retraction of ileum caused by histamine (P31389 whole entry): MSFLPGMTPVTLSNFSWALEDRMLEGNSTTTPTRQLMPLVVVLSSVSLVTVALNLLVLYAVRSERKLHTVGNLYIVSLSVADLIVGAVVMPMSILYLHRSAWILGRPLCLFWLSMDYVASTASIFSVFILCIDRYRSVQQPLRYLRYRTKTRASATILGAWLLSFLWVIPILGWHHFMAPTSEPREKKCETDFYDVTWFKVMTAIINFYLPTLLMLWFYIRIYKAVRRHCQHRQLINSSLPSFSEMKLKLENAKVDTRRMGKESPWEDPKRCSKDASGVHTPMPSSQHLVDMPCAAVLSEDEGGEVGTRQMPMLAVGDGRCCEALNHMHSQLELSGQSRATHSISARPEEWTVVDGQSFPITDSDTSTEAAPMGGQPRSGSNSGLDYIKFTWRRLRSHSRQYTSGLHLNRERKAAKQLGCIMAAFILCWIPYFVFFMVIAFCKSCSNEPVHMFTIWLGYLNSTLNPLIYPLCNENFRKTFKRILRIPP

SMILES | Acute toxicity (LD50) [5] [mg/kg] | Kb [6, 7] [nM] | further results
O=C1CCc2cc(C(=O)CCCN3CCN(c4ccccc4Cl)CC3)ccc2N1 [Compound 3, 6-{1-Oxo-4-[4-(2-chlorophenyl)-1-piperazinyl]butyl}-3,4-dihydrocarbostyril.monohydrochloride.monohydrate] | 500 |  | Score obtained (Mean value), degree of palpebral ptosis [1]: 2.0; ED50 [2]: 6.12 mg/kg; ED50 [3]: 1.05 mg/kg; Time (minutes) between introduction of anesthesia to waking [4]: 8.0 min
CN1C(=O)CCc2cc(C(=O)CCN3CCN(c4ccccc4)CC3)ccc21 [Compound 20, 1-Methyl-6-[1-oxo-3-(4-phenyl-1-piperazinyl)propyl]-3,4-dihydrocarbostyril.monooxalate] | 500 | 26.3 | 
Cc1cccc(N2CCN(CC=Cc3ccc4c(c3)CCC(=O)N4Cc3ccccc3)CC2)c1 [Compound 21, 1-Benzyl-6-{3-[4-(3-methylphenyl)-1-piperazinyl]-1-propenyl}-3,4-dihydrocarbostyril monooxalate] |  | 49 | 
O=C1CCc2c(CCCN3CCN(c4ccccc4)CC3)cccc2N1 [Compound 22, 5-[3-(4-Phenyl-1-piperazinyl)propyl]-3,4-dihydrocarbostyril] | 500 | 97.7 | 
Cc1ccc(C2=CCN(CC=Cc3ccc4c(c3)CCC(=O)N4)CC2)cc1 [Compound 23, 6-{3-[4-(4-Methylphenyl)-1,2,5,6-tetrahydropyridyl]-1-propenyl}-3,4-dihydrocarbostyril] | 500 |  | Kb [6]: 15.5 nM
O=C1CCc2cc(C(=O)CCN3CCC(Cc4ccccc4)CC3)ccc2N1 [Compound 24] | 500 | 58.9 | 
